BindingDB's records for doi:10.1021/jm701164t (Irbm-Mrl, 2008)

Target: Gag-Pol polyprotein (Human immunodeficiency virus type 1 group M subtype B (isolate HXB2), UniProt P04585)
Assay: Microtiter Plate Assay for Strand Transfer
Details: pH 7.8; 37 °C
Experimental: The microtiter plate assay for stand transfer was performed with an immobilized donor substrate and a target substrate biotinylated at the 3-prime end of each DNA strand. Integrase was first assembled with immobilized LTR oligonucleotides for 30 min. Inhibitors were added after assembly and washings. For the strand transfer reaction, it was initiated with the addition of the biotinylated target substrate. Strand transfer reaction mixtures were incubated for additional 30 min, and the strand transfer products were detected by using alkaline phosphatase-conjugated avidin (Boehringer Mannheim, Indianapolis, Ind.).

- IC50: 100 nM
Compound: CC(c1nc(C(=O)NCc2ccc(F)cc2)c(O)c(=O)[nH]1)N(C)C (stereo unspecified) [JMC496646 Compound 11]
